Measurements taken from ChEMBL document CHEMBL3098053, “Inhibition of serine and proline racemases by substrate-product analogues” (Bioorg Med Chem Lett, 2014).

Key:
[1] = molecular target: T1, Proline racemase (Clostridium sticklandii) (UniProt Q9L4Q3); test: Inhibition of N-terminal 6xHis-tagged Clostridium sticklandii ATCC 12662 proline racemase expressed in Escherichia coli BL21(DE3) using L/D-proline as substrate at 142.5 mM preincubated for 5 mins by circular dichroism-based analysis; details: Acetoanaerobium sticklandii
T1 sequence (whole entry): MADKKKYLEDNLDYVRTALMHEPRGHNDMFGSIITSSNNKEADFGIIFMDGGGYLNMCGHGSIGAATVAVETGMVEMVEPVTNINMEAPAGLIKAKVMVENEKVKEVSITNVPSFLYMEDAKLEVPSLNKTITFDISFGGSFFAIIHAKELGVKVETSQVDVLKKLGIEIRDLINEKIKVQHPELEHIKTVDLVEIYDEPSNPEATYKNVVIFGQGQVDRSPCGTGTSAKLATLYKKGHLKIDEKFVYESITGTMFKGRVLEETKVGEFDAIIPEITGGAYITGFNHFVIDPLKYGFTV

Proline racemase [2] = molecular target: T2, Proline racemase (Clostridium sticklandii, UniProt Q9L4Q3); test: Noncompetitive inhibition of N-terminal 6xHis-tagged Clostridium sticklandii ATCC 12662 proline racemase expressed in Escherichia coli BL21(DE3) using L/D-proline as substrate preincubated for 5 mins by Cornish-Bowden plot analysis; parameters: species or system Acetoanaerobium sticklandii
T2 sequence (Q9L4Q3 whole entry): T1 sequence (whole entry)

Proline racemase [3] = molecular target: T2, Proline racemase; test: Inhibition of N-terminal 6xHis-tagged Clostridium sticklandii ATCC 12662 proline racemase expressed in Escherichia coli BL21(DE3) using L/D-proline as substrate preincubated for 5 mins by circular dichroism-based analysis; parameters: species or system Acetoanaerobium sticklandii
Serine racemase [4] = molecular target: T3, Serine racemase (Schizosaccharomyces pombe (strain 972 / ATCC 24843) (Fission yeast), UniProt O59791); test: (§1) Mixed type inhibition of N-terminal 6xHis-tagged recombinant Schizosaccharomyces pombe 972 serine racemase expressed in Escherichia coli BL21(DE3) using L-serine as substrate assessed as enzyme-substrate-inhibitor complex preincubated for 2 mins followed by substrate addition by double reciprocal plot analysis
T3 sequence (O59791 whole entry): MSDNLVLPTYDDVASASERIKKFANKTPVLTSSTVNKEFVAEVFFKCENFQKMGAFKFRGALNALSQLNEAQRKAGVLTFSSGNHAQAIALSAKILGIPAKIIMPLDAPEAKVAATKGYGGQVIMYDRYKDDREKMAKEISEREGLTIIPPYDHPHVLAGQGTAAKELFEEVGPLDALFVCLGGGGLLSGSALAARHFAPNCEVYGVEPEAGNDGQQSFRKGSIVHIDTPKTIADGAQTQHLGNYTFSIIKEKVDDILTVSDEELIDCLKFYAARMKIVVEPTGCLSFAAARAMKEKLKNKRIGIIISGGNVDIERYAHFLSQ

Serine racemase [5] = molecular target: T3, Serine racemase; test: as §1, with “enzyme-inhibitor” for “enzyme-substrate-inhibitor”
[6] = molecular target: T1, Proline racemase (Clostridium sticklandii); test: Inhibition of Clostridium sticklandii ATCC 12662 proline racemase L-proline as substrate at 57 mM relative to control; details: Acetoanaerobium sticklandii
[7] = molecular target: T1, Proline racemase (Clostridium sticklandii); test: Inhibition of Clostridium sticklandii ATCC 12662 proline racemase using L-proline as substrate at 0.36 mM relative to control; details: Acetoanaerobium sticklandii
Proline racemase [8] = molecular target: T2, Proline racemase; test: Competitive inhibition of N-terminal 6xHis-tagged Clostridium sticklandii ATCC 12662 proline racemase expressed in Escherichia coli BL21(DE3) using L/D-proline as substrate; parameters: species or system Acetoanaerobium sticklandii

Compound: O=C(O)C12CCC(CC1)N2
- inhibition [1]: 29%

Compound: O=C(O)C12CCCN1CCC2
- Ki (Proline racemase [2]): 111 mM
- IC50 (Proline racemase [3]): 67 mM

Compound: NC(CO)(CO)C(=O)O
- Ki (Serine racemase [4]): 661 mM
- Ki (Serine racemase [5]): 167 mM

Compound: O=Cc1ccc[nH]1
- inhibition [6]: 98%
- inhibition [7]: 50%
- Ki (Proline racemase [8]): 0.0058 mM
